Results taken from US20190369122A1, “METABOLIC DISORDERS” (priority 2016, published 2019).

How the values were obtained:
[1] = Circulating levels after intraperitoneal injection in GF mice; type: in vivo, mouse; conditions: 500 μg intraperitoneally twice per day for 3 days
Protocol: (§1) An intraperitoneal glucose tolerance test (using 1 g glucose per kg body weight) was then performed after a 4 h fast. Blood glucose levels were measured from tail blood using HemoCue201+analyzer (HemoCue, Angelholm, Sweden). Liver and plasma samples were collected after a 4 h fast. Mice were under isoflurane anesthesia and killed by cervical dislocation. Fresh liver was taken and snap-frozen in liquid nitrogen and stored at −80° C. until protein extraction.
(§2) The samples were then reconstituted with 5% HCl in n-butanol at 70° C. for 1 h, allowing n-butyl ester to be formed. […] Samples (5 μl) were injected onto a C18 BEH column (2.1×100 mm with 1.7 μm particles; Waters, Milford, Mass.) using a gradient consisting of water with 0.1% formic acid (A-phase) and acetonitrile with 0.1% formic acid (B-phase). Mass spectrometric analysis was performed using an Infinity 1290 quaternary UPLC pump (Agilent, Santa Clara, Calif.) coupled to a QTRAP 5500 (ABSciex, Concord, Canada). […] For the internal standards, the transitions 206/81 and 204/93 were used.

GF mice = assay: Intraperitoneal glucose tolerance test in GF mice; type: in vivo, mouse; conditions: 500 μg i.p. twice per day for 3 days
Protocol: as §1

[2] = tested on: G6pase, Pepck, Srebp1c, Fasn, Irs1, Irs2; assay: Hepatic gene expression in GF mice (real-time PCR); type: in vivo, mouse; conditions: 500 μg i.p. twice per day for 3 days
Protocol: as §1
Mouse liver was homogenized in RLT buffer with ([…] using TissueLyser (Qiagen, Hilden, Germany). RNA was isolated using the RNeasy Minikit (Qiagen) and reverse transcribed to synthesize cDNA using High Capacity cDNA Reverse Transcription Kit (Applied Biosystems, Foster City, Calif., USA) according to the manufacturer's protocol. Real-time PCR was performed using 1×SYBR Green Master Mix (Thermo Scientific, Waltham, Mass., USA) using the following primers.

[3] = tested on: insulin signaling components; assay: Immunoblot of liver lysates from GF mice; type: in vivo, mouse; conditions: 3-day treatment
Protocol: as §1
(§3) Snap-frozen liver and harvested cells were lysed in buffer containing 50 mM Tris-HCl (pH 7.4), 150 mM NaCl, 1 mM EDTA, 1 mM Na3VO4, 20 mM NaF, 10 mM glycerophosphate, 1 mM PMSF, 10% glycerol, 1% Triton X-100 and protease inhibitor cocktail. For immunoprecipitation, the cell lysates were obtained in 0.3% CHAPS-containing lysis buffer, sonicated and centrifuged at 20,000 g for 15 min at 4° C., and the supernatant was incubated with 20 μl of anti-FLAG beads (Sigma) at 4° C. for 4 h under gentle agitation.

[4] = Plasma levels after intraperitoneal injection in CONVR mice; type: in vivo, mouse; conditions: 100 μg i.p. twice per day for 3 days
Protocol: as §1, §2

[5] = tested on: insulin signaling components; assay: IRS and Akt in liver, muscle and WAT of CONVR mice; type: in vivo, mouse
Protocol: as §1, §3

[6] = tested on: mTORC1-Rag heterodimer complex-p62; assay: Immunoprecipitation of FLAG mTOR: p62/Rag GTPases/mTORC1 complex formation; type: cell-based, human; conditions: HEK293; 100 μM, absence of amino acids, 1 h
Protocol: as §3
HEK293 cells (ATCC CRL-1573) were grown and maintained in high-glucose (4.5 g/l glucose) DMEM with 10% (v/v) FBS. All HEK293 cell experiments were performed in serum-starved and amino acid-deprived conditions. 24 h after transfection (with plasmids or siRNA as indicated), HEK293 cells cultured in poly-L-lysine-coated 60 mm dishes were rinsed twice with DMEM without FBS and incubated in serum-free DMEM for 18 h. HEK293 cells were then washed once with EBSS and incubated in EBSS for 1 h.

mTORC2 [7] = target: T1, mTORC2 (Homo sapiens, UniProt P42345); assay: mTORC2 kinase activity assay; type: biochemical
T1 construct: expressed in transfected cells; host or cells: HEK293
Protocol: HEK293 cells were transfected with 1 μg of HA Rictor and 0.5 μg of Flag mTOR for mTORC2 activity assay, lysed with 0.3% CHAPS-containing lysis buffer, sonicated and centrifuged at 20,000 g for 15 min at 4° C., and the supernatant was incubated with 2 μg of anti-HA antibody at 4° C. for overnight under gentle agitation. Immunocomplexes were then collected with protein A-Sepharose beads (RepliGen, Needham, Mass.) at 4° C. for 2 h and washed three times with 0.3% CHAPS-containing lysis buffer. […] Kinase reaction was started by adding 100 μM ATP for 15 min at 37° C. and stopped by adding 5× Laemmli buffer.

IRS1 = assay: Ubiquitination of IRS1; type: cell-based; conditions: 6 h treatment
Protocol: Cells were lysed under denaturing condition with 100 μl buffer A containing 2% SDS, and the cell lysates were transferred to a 1.5-ml microcentrifuge tube. The tube was placed on a hot plate immediately at 95° C. for 10 min. The cell lysates were sonicated and 700 μl of buffer A without SDS was added. The samples were incubated at 4° C. for 30 min, followed by centrifugation (20,000 g, 20 min). The supernatant was incubated with 20 μl of anti-FLAG beads (Sigma) at 4° C. for 4 h under gentle agitation.

[8] = Targeted measurements in portal and peripheral blood, first cohort; conditions: human portal vs peripheral blood
Excerpt: Two human cohorts were used in this study. The first cohort comprised five obese subjects with type 2 diabetes and ten BMI-matched subjects without type 2 diabetes who were undergoing laparoscopic Roux-and-Y gastric bypass surgery at the Slotervaart Hospital, Amsterdam, the Netherlands, see Table 2. Subjects were fasted overnight before the morning of the surgery, and a peripheral venous sample was taken just before the patient went into the operating room. Anthropometric measurements and a stool sample were also taken before surgery. During the surgery, a portal vein sample (vena puncture) was taken as previously described. Fasting glucose (by glucose meters, Roche Diagnostics), insulin (by an electrochemiluminescence immunoassay, Roche Modular System) and HbA1c (Menarini Diagnostic) were measured in the peripheral blood. All participants gave informed consent before the surgery and the protocol was approved by the Medical Ethical Committee of the Slotervaart Hospital, Amsterdam, the Netherlands.
The samples were then reconstituted with 5% HCl in n-butanol at 70° C. for 1 h, allowing n-butyl ester to be formed. […] Samples (5 μl) were injected onto a C18 BEH column (2.1×100 mm with 1.7 μm particles; Waters, Milford, Mass.) using a gradient consisting of water with 0.1% formic acid (A-phase) and acetonitrile with 0.1% formic acid (B-phase). […]

mTORC1 = assay: mTOR modification in mTORC1 (Raptor immunoprecipitation), HEK293; type: cell-based, human
Protocol: as §3

mTORC2 [9] = assay: mTOR modification in mTORC2 (Rictor immunoprecipitation), HEK293; type: cell-based, human
Protocol: as §3

SMILES: O=C(O)CCc1cnc[nH]1 [imidazole propionate]
- circulating concentrations of imidazole propionate [1]: around 13 nM
- effect on urocanate levels [1]: without affecting
- glucose tolerance (GF mice): significant glucose intolerance
- hepatic Irs1 and Irs2 mRNA levels [2]: no significant changes
- hepatic expression of Srebp1c and Fasn [2]: did not affect
- hepatic expression of G6pase and Pepck ([2]; vs controls): significantly increased
- Akt phosphorylation, either S473 or T308, in liver [3]: no reduction
- S6K1 phosphorylation in the liver [3]: increased
- mTORC1 S2481 autophosphorylation in the liver [3]: without affecting
- hepatic levels of IRS1 and IRS2 ([3]; 500 μg twice per day): reduced
- hepatic levels of the insulin receptor (IR) ([3]; 500 μg twice per day): did not affect
- effect on urocanate levels [4]: without affecting
- increase of circulating concentrations of imidazole propionate [4]: around 4 fold
- basal Akt S473 phosphorylation in liver, muscle and WAT ([5]; 3-day injection vs vehicle): higher
- IRS levels in liver, muscle or WAT ([5]; 3-day injections): did not reduce
- formation of the mTORC1-Rag heterodimer complex-p62 [6]: induced
- in vitro mTORC2 kinase activity towards Akt (mTORC2 [7]): not altered
- ubiquitination of IRS1 (IRS1): promoted
- metabolism inferred from similar portal and peripheral blood concentrations [8]: not metabolized
- modulation of mTORC1 (mTORC1; HEK293, 2 h incubation): specifically modulated
- mTOR S2448 phosphorylation in mTORC1 (mTORC1; Raptor immunoprecipitation): strongly induced
- mTOR S2481 phosphorylation in mTORC1 (mTORC1; Raptor immunoprecipitation): not
- modulation of mTORC2 (mTORC2 [9]; HEK293, 2 h incubation): not
- mTOR S2448 or S2481 phosphorylation in mTORC2 (mTORC2 [9]; Rictor immunoprecipitation): unaffected
